Assays:
[1] = biological target: Gap junction beta-2 protein (Homo sapiens) (UniProt P29033); experiment: Inhibition of human Cx26 expressed in kanamycin-resistant Escherichia coli LB2003 cells in medium containing […] K+ and 500 uM IPTG by measuring cell growth at 50 uM after 18 hrs by growth complementation assay; design: scale not given: the % may be the effect or the level left
[2] = biological target: Gap junction alpha-1 protein (Homo sapiens) (UniProt P17302); experiment: Inhibition of human Cx43 expressed in kanamycin-resistant Escherichia coli LB2003 cells in medium containing […] K+ and 10 uM IPTG by measuring cell growth at 15 uM after 18 hrs by growth complementation assay; design: scale not given: the % may be the effect or the level left
[3] = biological target: Gap junction alpha-1 protein (Homo sapiens) (UniProt P17302); experiment: Inhibition of human Cx43 expressed in kanamycin-resistant Escherichia coli LB2003 cells in medium containing […] K+ and 10 uM IPTG by measuring cell growth at 50 uM after 18 hrs by growth complementation assay; design: scale not given: the % may be the effect or the level left
[4] = biological target: Gap junction beta-2 protein (Homo sapiens) (UniProt P29033); experiment: Inhibition of human Cx26 expressed in kanamycin-resistant Escherichia coli LB2003 cells in medium containing […] K+ and 500 uM IPTG by measuring cell growth at 15 uM after 18 hrs by growth complementation assay; design: scale not given: the % may be the effect or the level left
[5] = Selectivity ratio of IC50 for inhibition of human Cx43 to IC50 for inhibition of human Cx26

Chain of Gap junction alpha-1 protein (Homo sapiens) (P17302 whole entry): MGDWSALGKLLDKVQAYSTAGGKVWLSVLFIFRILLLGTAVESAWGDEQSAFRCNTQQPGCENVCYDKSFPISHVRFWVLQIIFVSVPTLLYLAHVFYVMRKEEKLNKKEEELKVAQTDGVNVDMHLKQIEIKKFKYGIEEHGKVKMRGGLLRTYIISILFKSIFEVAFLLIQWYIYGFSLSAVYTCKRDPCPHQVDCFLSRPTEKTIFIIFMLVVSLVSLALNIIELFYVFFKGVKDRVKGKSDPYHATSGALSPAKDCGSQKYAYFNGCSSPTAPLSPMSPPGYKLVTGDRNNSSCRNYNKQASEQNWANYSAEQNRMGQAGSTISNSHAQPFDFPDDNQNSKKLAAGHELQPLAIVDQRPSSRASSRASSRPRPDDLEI

| SMILES | Activity [1] [%] | Activity [2] [%] | Activity [3] [%] | Activity [4] [%] | Selectivity ratio [5] |
| --- | --- | --- | --- | --- | --- |
| NC[C@H]1O[C@H](O[C@H]2[C@H](O)[C@@H](O[C@H]3O[C@H](COc4ccccc4)[C@@H](O)[C@H](N)[C@H]3O)[C@H](N)C[C@@H]2N)[C@H](O)[C@@H](O)[C@@H]1O | 69.4 | 36 | 46.7 | 14.6 | – |
| COc1ccc2cc(C(=O)NC[C@H]3O[C@H](O[C@H]4[C@H](O)[C@@H](O[C@H]5O[C@H](CO)[C@@H](O)[C@H](N)[C@H]5O)[C@H](N)C[C@@H]4N)[C@H](O)[C@@H](O)[C@@H]3O)ccc2c1 | 27.9 | 42.1 | 45.1 | 15.1 | – |
| Cc1ccc(COC[C@H]2O[C@H](O[C@@H]3[C@@H](O)[C@H](O[C@H]4O[C@H](CN)[C@@H](O)[C@H](O)[C@H]4O)[C@@H](N)C[C@H]3N)[C@H](O)[C@@H](N)[C@@H]2OCc2ccc(C)cc2)cc1 | – | – | – | – | 1.39 |
| NC[C@H]1O[C@H](O[C@H]2[C@H](O)[C@@H](O[C@H]3O[C@H](COCc4cccc(-c5ccccc5)c4)[C@@H](OCc4cccc(-c5ccccc5)c4)[C@H](N)[C@H]3O)[C@H](N)C[C@@H]2N)[C@H](O)[C@@H](O)[C@@H]1O | – | – | – | – | 1.23 |
| CCCCCCCCCC(=O)NC[C@H]1O[C@H](O[C@H]2[C@H](O)[C@@H](O[C@H]3O[C@H](CO)[C@@H](O)[C@H](N)[C@H]3O)[C@H](N)C[C@@H]2N)[C@H](O)[C@@H](O)[C@@H]1O | 33.6 | 44.4 | 53.5 | 16.1 | – |
| Cc1ccc(OC[C@H]2O[C@H](O[C@@H]3[C@@H](O)[C@H](O[C@H]4O[C@H](CN)[C@@H](O)[C@H](O)[C@H]4O)[C@@H](N)C[C@H]3N)[C@H](O)[C@@H](N)[C@@H]2O)cc1 | 28.2 | 63.8 | 76.8 | 19.3 | 7.97 |
| NC[C@H]1O[C@H](O[C@H]2[C@H](O)[C@@H](O[C@H]3O[C@H](CNC(=O)c4ccccc4-c4c5ccc(=O)cc-5oc5cc(O)ccc45)[C@@H](O)[C@H](N)[C@H]3O)[C@H](N)C[C@@H]2N)[C@H](O)[C@@H](O)[C@@H]1O | 81 | 45.3 | 55.1 | 37.1 | – |
| NC[C@H]1O[C@H](O[C@H]2[C@H](O)[C@@H](O[C@H]3O[C@H](COCc4ccc5ccccc5c4)[C@@H](OCc4ccc5ccccc5c4)[C@H](N)[C@H]3O)[C@H](N)C[C@@H]2N)[C@H](O)[C@@H](O)[C@@H]1O | – | – | – | – | 1.07 |
| NC[C@H]1O[C@H](O[C@H]2[C@H](O)[C@@H](O[C@H]3O[C@H](COc4ccc(-c5nc6ccccc6[nH]5)cc4)[C@@H](O)[C@H](N)[C@H]3O)[C@H](N)C[C@@H]2N)[C@H](O)[C@@H](O)[C@@H]1O | 85.5 | 43.2 | 71.7 | 83.1 | 0.34 |
| CCCCCCC(=O)NC[C@H]1O[C@H](O[C@H]2[C@H](O)[C@@H](O[C@H]3O[C@H](CO)[C@@H](O)[C@H](N)[C@H]3O)[C@H](N)C[C@@H]2N)[C@H](O)[C@@H](O)[C@@H]1O | 34.3 | 18.5 | 36 | 22.5 | – |
| N[C@@H]1[C@@H](O)[C@@H](O[C@@H]2[C@@H](O)[C@H](O[C@H]3O[C@H](CNC(=O)c4ccc5cc(O)ccc5c4)[C@@H](O)[C@H](O)[C@H]3O)[C@@H](N)C[C@H]2N)O[C@H](CO)[C@H]1O | 32.8 | 34.1 | 37.1 | 4.7 | – |
| CCCCCCCC(=O)NC[C@H]1O[C@H](O[C@H]2[C@H](O)[C@@H](O[C@H]3O[C@H](CO)[C@@H](O)[C@H](N)[C@H]3O)[C@H](N)C[C@@H]2N)[C@H](O)[C@@H](O)[C@@H]1O | 25.2 | 17 | 37.2 | 14 | – |
| NC[C@H]1O[C@H](O[C@H]2[C@H](O)[C@@H](O[C@H]3O[C@H](COCc4ccc(Cl)cc4)[C@@H](OCc4ccc(Cl)cc4)[C@H](N)[C@H]3O)[C@H](N)C[C@@H]2N)[C@H](O)[C@@H](O)[C@@H]1O | – | – | – | – | 0.15 |
| NC[C@H]1O[C@H](O[C@H]2[C@H](O)[C@@H](O[C@H]3O[C@H](COc4ccc([N+](=O)[O-])cc4)[C@@H](O)[C@H](N)[C@H]3O)[C@H](N)C[C@@H]2N)[C@H](O)[C@@H](O)[C@@H]1O | 62.6 | 36.5 | 49.3 | 35.9 | – |
| N[C@@H]1[C@@H](O)[C@@H](O[C@@H]2[C@@H](O)[C@H](O[C@H]3O[C@H](CNC(=O)c4ccccc4-c4c5ccc(=O)cc-5oc5cc(O)ccc45)[C@@H](O)[C@H](O)[C@H]3O)[C@@H](N)C[C@H]2N)O[C@H](CO)[C@H]1O | 79.6 | 56.8 | 83.4 | 22.3 | 1.42 |
| NC[C@H]1O[C@H](O[C@H]2[C@H](O)[C@@H](O[C@H]3O[C@H](COc4ccc(Cl)cc4)[C@@H](O)[C@H](N)[C@H]3O)[C@H](N)C[C@@H]2N)[C@H](O)[C@@H](O)[C@@H]1O | 69.5 | 50.3 | 68.3 | 44.4 | 1.93 |
| COc1ccc(COC[C@H]2O[C@H](O[C@@H]3[C@@H](O)[C@H](O[C@H]4O[C@H](CN)[C@@H](O)[C@H](O)[C@H]4O)[C@@H](N)C[C@H]3N)[C@H](O)[C@@H](N)[C@@H]2OCc2ccc(OC)cc2)cc1 | – | – | – | – | 3.17 |
| NC[C@H]1O[C@H](O[C@H]2[C@H](O)[C@@H](O[C@H]3O[C@H](COc4ccc(-c5ccccc5)cc4)[C@@H](O)[C@H](N)[C@H]3O)[C@H](N)C[C@@H]2N)[C@H](O)[C@@H](O)[C@@H]1O | 67.8 | 27.3 | 54.3 | 46.3 | – |
| CCCCCCCCCCCC(=O)NC[C@H]1O[C@H](O[C@H]2[C@H](O)[C@@H](O[C@H]3O[C@H](CO)[C@@H](O)[C@H](N)[C@H]3O)[C@H](N)C[C@@H]2N)[C@H](O)[C@@H](O)[C@@H]1O | 56.2 | 53.6 | 70.9 | 16.4 | 6.88 |
| NC[C@H]1O[C@H](O[C@H]2[C@H](O)[C@@H](O[C@H]3O[C@H](COCc4ccc(F)cc4)[C@@H](OCc4ccc(F)cc4)[C@H](N)[C@H]3O)[C@H](N)C[C@@H]2N)[C@H](O)[C@@H](O)[C@@H]1O | – | – | – | – | 0.3 |
| N[C@@H]1[C@@H](O)[C@@H](O[C@@H]2[C@@H](O)[C@H](O[C@H]3O[C@H](CNC(=O)c4cc(-c5ccccc5)nc5ccccc45)[C@@H](O)[C@H](O)[C@H]3O)[C@@H](N)C[C@H]2N)O[C@H](CO)[C@H]1O | 22.8 | 25.5 | 51 | 8 | – |
| COc1ccc(OC[C@H]2O[C@H](O[C@@H]3[C@@H](O)[C@H](O[C@H]4O[C@H](CN)[C@@H](O)[C@H](O)[C@H]4O)[C@@H](N)C[C@H]3N)[C@H](O)[C@@H](N)[C@@H]2O)cc1 | 36.5 | 20 | 34.8 | 15.9 | – |
| Cc1ccc(S(=O)(=O)OC[C@H]2O[C@H](O[C@@H]3[C@@H](O)[C@H](O[C@H]4O[C@H](CN)[C@@H](O)[C@H](O)[C@H]4O)[C@@H](N)C[C@H]3N)[C@H](O)[C@@H](N)[C@@H]2O)cc1 | 49.2 | 38.1 | 51 | 26.8 | – |
| N[C@@H]1[C@@H](O)[C@@H](O[C@@H]2[C@@H](O)[C@H](O[C@H]3O[C@H](CNC(=O)CCCc4cc5ccc6cccc7ccc(c4)c5c67)[C@@H](O)[C@H](O)[C@H]3O)[C@@H](N)C[C@H]2N)O[C@H](CO)[C@H]1O | 79.2 | 52.2 | 69.6 | 36.9 | 2.16 |
